From patent EP0838471A1, “PEPTIDE DERIVATIVES AND ANGIOTENSIN IV RECEPTOR AGONIST” (SAGAMI CHEMICAL RESEARCH CENTER, priority 1995, dated 1997) come the findings set out here.

Where a name gives a salt, the structure may show the parent alone.

For the assay, the target named is T1, angiotensin IV receptor (Cavia porcellus, UniProt H0VNM7).
T1 sequence (H0VNM7 1-1025): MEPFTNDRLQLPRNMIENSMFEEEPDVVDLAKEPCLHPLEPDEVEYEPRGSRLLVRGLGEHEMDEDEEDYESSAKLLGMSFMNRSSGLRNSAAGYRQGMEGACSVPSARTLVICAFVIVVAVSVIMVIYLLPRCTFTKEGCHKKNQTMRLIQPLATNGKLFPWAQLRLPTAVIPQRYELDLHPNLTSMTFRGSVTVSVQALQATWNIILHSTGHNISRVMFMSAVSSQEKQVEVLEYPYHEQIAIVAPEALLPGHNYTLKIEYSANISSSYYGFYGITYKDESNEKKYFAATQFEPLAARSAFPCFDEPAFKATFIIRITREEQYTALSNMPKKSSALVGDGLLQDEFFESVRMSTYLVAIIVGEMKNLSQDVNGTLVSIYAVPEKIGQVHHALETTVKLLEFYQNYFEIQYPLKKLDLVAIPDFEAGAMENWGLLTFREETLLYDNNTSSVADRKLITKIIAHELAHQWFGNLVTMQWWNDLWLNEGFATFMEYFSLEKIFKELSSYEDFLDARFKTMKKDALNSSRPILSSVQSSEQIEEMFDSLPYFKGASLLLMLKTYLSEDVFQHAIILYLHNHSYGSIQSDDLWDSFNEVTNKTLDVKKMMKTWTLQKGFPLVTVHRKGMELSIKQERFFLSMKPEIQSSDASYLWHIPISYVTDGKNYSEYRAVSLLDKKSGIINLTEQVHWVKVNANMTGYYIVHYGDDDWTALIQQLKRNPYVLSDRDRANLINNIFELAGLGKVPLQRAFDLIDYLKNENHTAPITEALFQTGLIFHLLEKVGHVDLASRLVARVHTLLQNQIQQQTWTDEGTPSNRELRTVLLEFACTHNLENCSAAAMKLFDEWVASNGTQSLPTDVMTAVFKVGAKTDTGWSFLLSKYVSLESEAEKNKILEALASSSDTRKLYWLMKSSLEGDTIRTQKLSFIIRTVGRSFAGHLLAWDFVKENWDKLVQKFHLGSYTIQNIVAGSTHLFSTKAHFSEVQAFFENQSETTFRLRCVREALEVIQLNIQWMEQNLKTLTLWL
Description: Binding to angiotensin IV receptor (125I-angiotensin IV displacement, crude membrane specimen). As to conditions: Hartley guinea pig hippocampus membrane; 0.2 nM 125I-angiotensin IV; 37°C for 90 minutes; nonspecific bond with 1 µM angiotensin IV. Here is the method:
The capability of binding to angiotensin IV receptor was measured by using Hartley guinea pig hippocampus in accordance with the method reported by Miller-Wing et al., J. Pharmacol. Exp. Therp., 266:1718 (1993).
The Hartley guinea pig hippocampus was homogenized in a 50 mM Tris hydrochloride buffer solution (pH 7.4) containing 1 mM of ethylenediamine-N,N,N',N'-tetraacetic acid (EDTA) and 100 µm of phenylmethanesufonyl fluoride (PMSF). After centrifuging at 900 × g, the supernatant thus obtained was further centrifuged at 48,000 × g. The precipitate was washed once with the same buffer solution and then the precipitate was suspended in a 50 mM Tris hydrochloride buffer solution (pH 7.4) containing 150 mM of sodium chloride, 1 mM of EDTA, 100 µm of PMSF and 0.1% of bovine serum albumin (BSA) in such a manner as to give a protein concentration of 50 µg/ml to thereby give a crude membrane specimen.
This membrane specimen was allowed to react with 0.2 nM ^125I-angiotensin IV and a test compound dissolved in dimethyl sulfoxide at 37°C for 90 minutes. Then ^125I-angiotensin IV binding to the membrane was filtered under suction onto GF/B filer paper with the use of a cell harvester for laboratory use. The radioactivity on the filter paper was measured with a gamma-counter. The nonspecific bond was measured in the presence of 1 µM of angiotensin IV and the specific bond was calculated by subtracting the nonspecific bond from the total bond. The capability (IC50) of the test compound of binding to angiotensin IV receptor was determined as the concentration of the test compound capable of inhibiting the binding at an extent of 50% from the inhibition curve obtained by reacting 0.2 nM ^125I-angiotensin IV with the test compound at various concentrations.

As a reminder, the IC50 is the concentration that gives 50% inhibition. With “N'-[N-(L-norleucyl)-N^im-benzyl-L-histidyl]-N-(2-phenylethyl)-L-leucinamide dihydrochloride [Example 33]”, the IC50 was determined as 12.6 nM.
Next, `CC[C@H](C)[C@H](CCc1ccccc1)NC(=O)[C@H](Cc1ccc(O)cc1)NC(=O)[C@@H](N)C(C)C` [Example 59, (3S,4S)-N'-(L-valyl)-N-(4-methyl-1-phenylhexan-3-yl)-L-tyrosinamide hydrochloride]: 26.5 nM.
“L-valyl-L-tyrosyl-N-(4-pyridylmethyl)-L-isoleucinamide [Example 9]” returned an IC50 of 5.99 nM.
Next, “N'-[N-[L-2-amino-3-(ethylthio)propionyl]-L-tyrosyl]-N-(2-phenylethyl)-L-leucinamide hydrochloride [Example 18]”: 0.4 nM; `CCCC[C@H](N)C(=O)N[C@@H](Cc1ccc(O)cc1)C(=O)N[C@@H](CCc1ccc(C)cc1)[C@@H](C)CC` [Example 61, (3S,4S)-N'-(L-norleucyl)-N-[4-methyl-1-(4-methylphenyl)-1-hexan-3-yl]-L-tyrosinamide hydrochloride]: 24.2 nM.
